According to publication PMC9114115, “Property space mapping of Pseudomonas aeruginosa permeability to small molecules” (Scientific Reports, 2022):
Where a name gives a salt, the structure may show the parent alone.

These molecules were tested on P. aeruginosa PAO1-Pore cells (assay: LC–MS quantification of intracellular accumulation, PAO1-Pore). Details: 1 min incubation, 10-80 µM.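 Note: slope of accumulation versus external concentration fitted as a line through zero.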
Experimental: (§1) PAO1-Pore and PΔ3-Pore were grown at 37 °C overnight with shaking at 225 rpm in 50 mM MOPS-M9 (pH 7.2) Minimal Medium supplemented with 1% glycerol[42],[43].
(§2) The next day, cells were sub-cultured (1.5:100) in fresh MOPS-M9 medium and grown for 16 h. The cultures were then split into two flasks and one of them was induced with 0.1 mM IPTG. Cells incubated for additional 4 h until OD600 reached ~ 1.0 and harvested by centrifugation at 3,275xg for 20 min in RT, washed and concentrated 10X in the spent medium. Assays were performed in 96-well plates in a final volume of […]. Cells were incubated with 10, 20, 40, 80 µM of compounds and after 1- and 40-min incubation at RT, 100 µL cell aliquots were collected by vacuum filtration onto 1.0 µm Glass Fiber Type B filters. For no-cell controls, compounds were diluted to 10, 20, 40, 80 µM final concentration in the same medium, incubated for 1 min and 40 min and filtered onto the same plates. The cell loaded and cell-free filters were dried, removed from plates and placed into 100% methanol at -80 °C for at least 10 min. Filter-bound material was extracted by water bath sonication for 1 min. Cell and filter debris were separated by ultracentrifugation at 45,000 rpm (TLA55 rotor, Beckman) for 8 min at 16 °C and the pellet re-extracted with 80% methanol in water by sonication for 15 min followed by ultracentrifugation at the same conditions. Supernatants from two extractions were combined. For the compound quantification, 5 µL of solution was analyzed in triplicate.
(§3) Calibration curves for MS analyses of compounds were generated in the same experiment by mixing compound at increasing concentrations with the sonicated PAO1 cell extracts. […] Azithromycin was used as a positive control in all experiments.
(§4) Samples were processed in positive ion mode. An Eclipse plus C18 Rapid Resolution HD column (1.8 μm, 2.1 × 50 mm, Agilent, USA) was used for separation. The flow rate was 0.6 mL/min using the following gradient: 0 to 1 min (0- 20% ACN), 1 to 4 min (20- 80% ACN), 4 to 5.1 min (80–100% ACN), 5.1 to 6.30 (100% ACN). Solvents contained 0.1% formic acid to promote positive ion formation in the electrospray. […] Data were analyzed using Agilent Masshunter workstation quantitative analysis v. B.10 software.
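Throughout, for Concentration slopes of accumulation, PΔ3-Pore 1 min: slope of accumulation versus external concentration fitted as a line through zero.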

Row | SMILES | Concentration slopes of accumulation, PAO1-Pore_1 min
1 | N[C@@H](CC(=O)N1CCn2c(nnc2C(F)(F)F)C1)Cc1cc(F)c(F)cc1F [OU-0000833, Sitagliptin Monophosphate Monohydrate] | 4.16
2 | CN1C[C@H](C(=O)N[C@]2(C)O[C@@]3(O)[C@@H]4CCCN4C(=O)[C@H](Cc4ccccc4)N3C2=O)C=C2c3cccc4[nH]cc(c34)C[C@H]21 [OU-0000834, Ergotamine Tartrate] | 17.94
3 | CC1CN=C(c2ccc(NC(=O)Nc3ccc(C4=NCCN4)cc3)cc2)N1.Cl (stereo not drawn) [OU-0001395] | 2.72
4 | CC(C)(C)OC(=O)N1[C@H](CCC2CCCCC2)CNC(=O)[C@@H]1Cc1cc(F)cc(F)c1 [OU-0032510] | 37.26
5 | O=C1N[C@@H](Cc2c[nH]c3ccccc23)C(=O)N2CCC[C@@H]12 [OU-0032512] | 3.51

Same assay, conditions: 40 min incubation, 10-80 µM

Row | SMILES | Concentration slopes of accumulation, PAO1-Pore_40 min
6 | N[C@@H](CC(=O)N1CCn2c(nnc2C(F)(F)F)C1)Cc1cc(F)c(F)cc1F [OU-0000833, Sitagliptin Monophosphate Monohydrate] | 4.84
7 | CN1C[C@H](C(=O)N[C@]2(C)O[C@@]3(O)[C@@H]4CCCN4C(=O)[C@H](Cc4ccccc4)N3C2=O)C=C2c3cccc4[nH]cc(c34)C[C@H]21 [OU-0000834, Ergotamine Tartrate] | 20.50
8 | CC1CN=C(c2ccc(NC(=O)Nc3ccc(C4=NCCN4)cc3)cc2)N1.Cl (stereo not drawn) [OU-0001395] | 7.34
9 | CC(C)(C)OC(=O)N1[C@H](CCC2CCCCC2)CNC(=O)[C@@H]1Cc1cc(F)cc(F)c1 [OU-0032510] | 28.02
10 | O=C1N[C@@H](Cc2c[nH]c3ccccc23)C(=O)N2CCC[C@@H]12 [OU-0032512] | 2.49

What follows are molecules tested on P. aeruginosa PΔ3 cells (assay: not given). Details: 1 min incubation, 10-80 µM.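 Note: slope of accumulation versus external concentration fitted as a line through zero.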
Experimental: as §1, §2, §3, §4

Row | SMILES | Concentration slopes of accumulation, PΔ3_1 min
11 | N[C@@H](CC(=O)N1CCn2c(nnc2C(F)(F)F)C1)Cc1cc(F)c(F)cc1F [OU-0000833, Sitagliptin Monophosphate Monohydrate] | 4.36
12 | CN1C[C@H](C(=O)N[C@]2(C)O[C@@]3(O)[C@@H]4CCCN4C(=O)[C@H](Cc4ccccc4)N3C2=O)C=C2c3cccc4[nH]cc(c34)C[C@H]21 [OU-0000834, Ergotamine Tartrate] | 8.34
13 | CC1CN=C(c2ccc(NC(=O)Nc3ccc(C4=NCCN4)cc3)cc2)N1.Cl (stereo not drawn) [OU-0001395] | 8.86
14 | CC(C)(C)OC(=O)N1[C@H](CCC2CCCCC2)CNC(=O)[C@@H]1Cc1cc(F)cc(F)c1 [OU-0032510] | 30.64
15 | O=C1N[C@@H](Cc2c[nH]c3ccccc23)C(=O)N2CCC[C@@H]12 [OU-0032512] | 2.98

Same assay, conditions: 40 min incubation, 10-80 µM

Row | SMILES | Concentration slopes of accumulation, PΔ3_40 min
16 | N[C@@H](CC(=O)N1CCn2c(nnc2C(F)(F)F)C1)Cc1cc(F)c(F)cc1F [OU-0000833, Sitagliptin Monophosphate Monohydrate] | 4.18
17 | CN1C[C@H](C(=O)N[C@]2(C)O[C@@]3(O)[C@@H]4CCCN4C(=O)[C@H](Cc4ccccc4)N3C2=O)C=C2c3cccc4[nH]cc(c34)C[C@H]21 [OU-0000834, Ergotamine Tartrate] | 13.59
18 | CC1CN=C(c2ccc(NC(=O)Nc3ccc(C4=NCCN4)cc3)cc2)N1.Cl (stereo not drawn) [OU-0001395] | 5.05
19 | CC(C)(C)OC(=O)N1[C@H](CCC2CCCCC2)CNC(=O)[C@@H]1Cc1cc(F)cc(F)c1 [OU-0032510] | 29.44
20 | O=C1N[C@@H](Cc2c[nH]c3ccccc23)C(=O)N2CCC[C@@H]12 [OU-0032512] | 3.06

These molecules were tested on P. aeruginosa PAO1 cells (assay: LC–MS quantification of intracellular accumulation, PAO1). Details: 1 min incubation, 10-80 µM.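 Note: slope of accumulation versus external concentration fitted as a line through zero.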
Experimental: as §1, §2, §3, §4

Row | SMILES | Concentration slopes of accumulation, PAO1_1 min
21 | N[C@@H](CC(=O)N1CCn2c(nnc2C(F)(F)F)C1)Cc1cc(F)c(F)cc1F [OU-0000833, Sitagliptin Monophosphate Monohydrate] | 7.55
22 | CN1C[C@H](C(=O)N[C@]2(C)O[C@@]3(O)[C@@H]4CCCN4C(=O)[C@H](Cc4ccccc4)N3C2=O)C=C2c3cccc4[nH]cc(c34)C[C@H]21 [OU-0000834, Ergotamine Tartrate] | 15.91
23 | CC1CN=C(c2ccc(NC(=O)Nc3ccc(C4=NCCN4)cc3)cc2)N1.Cl (stereo not drawn) [OU-0001395] | 3.79
24 | CC(C)(C)OC(=O)N1[C@H](CCC2CCCCC2)CNC(=O)[C@@H]1Cc1cc(F)cc(F)c1 [OU-0032510] | 36.86

Same assay, conditions: 40 min incubation, 10-80 µM

Row | SMILES | Concentration slopes of accumulation, PAO1_40 min
25 | N[C@@H](CC(=O)N1CCn2c(nnc2C(F)(F)F)C1)Cc1cc(F)c(F)cc1F [OU-0000833, Sitagliptin Monophosphate Monohydrate] | 5.67
26 | CN1C[C@H](C(=O)N[C@]2(C)O[C@@]3(O)[C@@H]4CCCN4C(=O)[C@H](Cc4ccccc4)N3C2=O)C=C2c3cccc4[nH]cc(c34)C[C@H]21 [OU-0000834, Ergotamine Tartrate] | 12.24
27 | CC1CN=C(c2ccc(NC(=O)Nc3ccc(C4=NCCN4)cc3)cc2)N1.Cl (stereo not drawn) [OU-0001395] | 6.44
28 | CC(C)(C)OC(=O)N1[C@H](CCC2CCCCC2)CNC(=O)[C@@H]1Cc1cc(F)cc(F)c1 [OU-0032510] | 31.85

These molecules were tested on P. aeruginosa (assay: not given). Details: not given.
Experimental: The measured levels of compound accumulation were analyzed using machine learning to determine which features of the compounds are most important for enabling their cellular accumulation and to determine their optimal values. […] To accentuate the permeability aspect, the accumulation slopes in efflux-deficient and hyperporinated strains were normalized to those in the parental PAO1 strain.
To help visualize the data, we performed a principal component (PC) decomposition of the data.

Row | SMILES | permeator classification
29 | N[C@@H](CC(=O)N1CCn2c(nnc2C(F)(F)F)C1)Cc1cc(F)c(F)cc1F [OU-0000833, Sitagliptin Monophosphate Monohydrate] | good permeators
30 | CN1C[C@H](C(=O)N[C@]2(C)O[C@@]3(O)[C@@H]4CCCN4C(=O)[C@H](Cc4ccccc4)N3C2=O)C=C2c3cccc4[nH]cc(c34)C[C@H]21 [OU-0000834, Ergotamine Tartrate] | good permeators

Same assay, conditions: sheet "Good" permeators; all listed compounds are good permeators

Row | SMILES | Cluster of the identified "good" permeators
31 | N[C@@H](CC(=O)N1CCn2c(nnc2C(F)(F)F)C1)Cc1cc(F)c(F)cc1F [OU-0000833, Sitagliptin Monophosphate Monohydrate] | 1
32 | CN1C[C@H](C(=O)N[C@]2(C)O[C@@]3(O)[C@@H]4CCCN4C(=O)[C@H](Cc4ccccc4)N3C2=O)C=C2c3cccc4[nH]cc(c34)C[C@H]21 [OU-0000834, Ergotamine Tartrate] | 3
33 | CC1CN=C(c2ccc(NC(=O)Nc3ccc(C4=NCCN4)cc3)cc2)N1.Cl (stereo not drawn) [OU-0001395] | 1
34 | CC(C)(C)OC(=O)N1[C@H](CCC2CCCCC2)CNC(=O)[C@@H]1Cc1cc(F)cc(F)c1 [OU-0032510] | 3
35 | O=C1N[C@@H](Cc2c[nH]c3ccccc23)C(=O)N2CCC[C@@H]12 [OU-0032512] | 1

Each molecule was assayed on P. aeruginosa PΔ3-Pore cells (assay: LC–MS quantification of intracellular accumulation, PΔ3-Pore). Details: 1 min incubation, 10-80 µM.
Experimental: as §1, §2, §3, §4

Row | SMILES | Concentration slopes of accumulation, PΔ3-Pore_1 min
36 | N[C@@H](CC(=O)N1CCn2c(nnc2C(F)(F)F)C1)Cc1cc(F)c(F)cc1F [OU-0000833, Sitagliptin Monophosphate Monohydrate] | 4.24
37 | CN1C[C@H](C(=O)N[C@]2(C)O[C@@]3(O)[C@@H]4CCCN4C(=O)[C@H](Cc4ccccc4)N3C2=O)C=C2c3cccc4[nH]cc(c34)C[C@H]21 [OU-0000834, Ergotamine Tartrate] | 20.02
38 | CC1CN=C(c2ccc(NC(=O)Nc3ccc(C4=NCCN4)cc3)cc2)N1.Cl (stereo not drawn) [OU-0001395] | 1.38
39 | CC(C)(C)OC(=O)N1[C@H](CCC2CCCCC2)CNC(=O)[C@@H]1Cc1cc(F)cc(F)c1 [OU-0032510] | 31.28
40 | O=C1N[C@@H](Cc2c[nH]c3ccccc23)C(=O)N2CCC[C@@H]12 [OU-0032512] | 2.90

Same assay, conditions: 40 min incubation, 10-80 µM

Row | SMILES | Concentration slopes of accumulation, PΔ3-Pore_40min
41 | N[C@@H](CC(=O)N1CCn2c(nnc2C(F)(F)F)C1)Cc1cc(F)c(F)cc1F [OU-0000833, Sitagliptin Monophosphate Monohydrate] | 4.28
42 | CN1C[C@H](C(=O)N[C@]2(C)O[C@@]3(O)[C@@H]4CCCN4C(=O)[C@H](Cc4ccccc4)N3C2=O)C=C2c3cccc4[nH]cc(c34)C[C@H]21 [OU-0000834, Ergotamine Tartrate] | 15.58
43 | CC1CN=C(c2ccc(NC(=O)Nc3ccc(C4=NCCN4)cc3)cc2)N1.Cl (stereo not drawn) [OU-0001395] | 4.42
44 | CC(C)(C)OC(=O)N1[C@H](CCC2CCCCC2)CNC(=O)[C@@H]1Cc1cc(F)cc(F)c1 [OU-0032510] | 28.27
45 | O=C1N[C@@H](Cc2c[nH]c3ccccc23)C(=O)N2CCC[C@@H]12 [OU-0032512] | 2.97
